# Where two headings read alike, the source gives them in different places.
# Columns and labels:
# Assay type in all cases: cell-based
# PI4KA, PI4KAP2 = assay: KiNativ kinase profiling in A375 cells; conditions: ATP, SEQ ID NO 141, 1.0 μM
# BRAF = system: BRAF
# PIP5K3 = system: PIP5K3
# RSK1 domain2 = system: RSK1 domain2
# CSK = system: CSK
# RSKL1 = system: RSKL1
# PKCa, PKCb = assay: KiNativ kinase profiling in A375 cells; conditions: Lys2, SEQ ID NO 153, 1.0 μM
# CK1g2 = system: CK1g2
# MAP2K3 = system: MAP2K3
# CASK = system: CASK
# ZC2/TNIK = system: ZC2/TNIK
# AurB = system: AurB
# MAP3K2 = system: MAP3K2
# MARK3 = system: MARK3
# PITSLRE = assay: KiNativ kinase profiling in A375 cells; conditions: Lys2, SEQ ID NO 152, 1.0 μM
# PAN3 = system: PAN3
# MPSK1 = system: MPSK1
# p38d, p38g = assay: KiNativ kinase profiling in A375 cells; conditions: Lys2, SEQ ID NO 130, 1.0 μM
# MAP3K4 = system: MAP3K4
# CK2a2 = system: CK2a2
# DNAPK = system: DNAPK
# KSR1 = system: KSR1
# PHKG1 = system: PHKG1
# CAMKK2 = system: CAMKK2
# RSK4 domain1 = system: RSK4 domain1
# NDR2 = system: NDR2
# BARK1 = system: BARK1
# LATS1 = system: LATS1
# RSK3 domain1 = system: RSK3 domain1
# PIK3C3 = system: PIK3C3
# PKN1 = system: PKN1
# JAK1 domain2 = system: JAK1 domain2
# CDK2 = system: CDK2
# CHK2 = system: CHK2
# MAP3K3 = system: MAP3K3
# TLK1 = system: TLK1
# SYK = system: SYK
# PIP4K2B = system: PIP4K2B
# PKR = system: PKR
# MLKL = system: MLKL
# HPK1 = system: HPK1
# [1] = system: WM patient primary lymphoplasmacytic cells (LPCs); assay: Apoptosis analysis (Annexin V/Propidium iodide); conditions: for Apoptosis (%): 24 hours
# Method: WM cells were treated with and without the compounds described herein. Cells were incubated at 37° C. with 0.01˜4 uM of the compounds described herein. Apoptosis analysis was performed using Annexin V/Propidium iodide staining with the Apoptosis Detection Kit I (BD Pharmingen). 1×10^6/well cells were treated in 24 well plates for ˜24 hours with inhibitors or corresponding controls. A minimum of 10,000 events were acquired using a BD™ FACSCanto II flow cytometer and analyzed with BD FACS DIVA Software.
# Apoptosis analysis of WM patient primary lymphoplasmacytic cells (LPCs) was preformed following A-5 and A-14 treatment of Bone marrow mononuclear cells (BMMC) from WM patients for 24 hours. Apoptosis analysis was performed using Annexin V/Propidium iodide staining with the Apoptosis Detection Kit I (BD Pharmingen) in CD19-APC-cy7 antibody (BD Pharmingen) gated LPCs population.
structure (smiles),measurement,setting,value
"CCN1CCN(Cc2ccc(NC(=O)c3ccc(C)c(Oc4cc(N)ncn4)c3)cc2C(F)(F)F)CC1 [(A-4), 3-((6-aminopyrimidin-4-yl)oxy)-N-(4-((4-ethylpiperazin-1-yl)methyl)-3-(trifluoromethyl)phenyl)-4-methylbenzamide]",inhibition of kinase labeling,"PI4KA, PI4KAP2",19.3%
same,inhibition of kinase labeling,BRAF,18.9%
same,inhibition of kinase labeling,PIP5K3,0.9%
same,inhibition of kinase labeling,RSK1 domain2,−16.3%
same,inhibition of kinase labeling,CSK,15.3%
same,inhibition of kinase labeling,RSKL1,31.5%
same,inhibition of kinase labeling,"PKCa, PKCb",2.3%
same,inhibition of kinase labeling,CK1g2,−9.1%
same,inhibition of kinase labeling,MAP2K3,−1.0%
same,inhibition of kinase labeling,CASK,−28.1%
same,inhibition of kinase labeling,ZC2/TNIK,23.9%
same,inhibition of kinase labeling,AurB,−51.1%
same,inhibition of kinase labeling,MAP3K2,4.2%
same,inhibition of kinase labeling,MARK3,−26.1%
same,inhibition of kinase labeling,PITSLRE,−10.4%
same,inhibition of kinase labeling,PAN3,12.1%
same,inhibition of kinase labeling,MPSK1,16.1%
same,inhibition of kinase labeling,"p38d, p38g",62.5%
same,inhibition of kinase labeling,MAP3K4,19.2%
same,inhibition of kinase labeling,CK2a2,−18.2%
same,inhibition of kinase labeling,DNAPK; ATP site peptide SEQ ID NO 37,−61.5%
same,inhibition of kinase labeling,DNAPK; ATP site peptide SEQ ID NO 38,−64.6%
same,inhibition of kinase labeling,KSR1,−22.0%
same,inhibition of kinase labeling,PHKG1,−49.0%
same,inhibition of kinase labeling,CAMKK2,6.2%
same,inhibition of kinase labeling,RSK4 domain1,27.6%
same,inhibition of kinase labeling,NDR2,−10.9%
same,inhibition of kinase labeling,BARK1,−13.4%
same,inhibition of kinase labeling,LATS1,5.4%
same,inhibition of kinase labeling,RSK3 domain1,−32.6%
same,inhibition of kinase labeling,PIK3C3,−5.1%
same,inhibition of kinase labeling,PKN1,−32.1%
same,inhibition of kinase labeling,JAK1 domain2,−6.2%
same,inhibition of kinase labeling,CDK2,−3.5%
same,inhibition of kinase labeling,CHK2,−7.8%
same,inhibition of kinase labeling,MAP3K3,3.7%
same,inhibition of kinase labeling,TLK1,4.9%
same,inhibition of kinase labeling,SYK,17.4%
same,inhibition of kinase labeling,PIP4K2B,−44.7%
same,inhibition of kinase labeling,PKR,−28.4%
same,inhibition of kinase labeling,MLKL,−14.9%
same,inhibition of kinase labeling,HPK1,68.1%
"CCN1CCN(Cc2ccc(NC(=O)c3ccc(C)c(Oc4ccnc(Nc5cnn(C)c5)n4)c3)cc2C(F)(F)F)CC1 [(A-14), N-(4-((4-ethylpiperazin-1-yl)methyl)-3-(trifluoromethyl)phenyl)-4-methyl-3-((2-((1-methyl-1H-pyrazol-4-yl)amino)pyrimidin-4-yl)oxy)benzamide]",Apoptosis (%),"[1]; Patient 5, 0.5 μM",39.24%
same,Apoptosis (%),"[1]; Patient 5, 1.0 μM",46.86%
same,Apoptosis (%),"[1]; Patient 6, 1.0 μM",20.88%
same,Apoptosis (%),"[1]; Patient 7, 0.5 μM",22.62%
same,Apoptosis (%),"[1]; Patient 7, 1.0 μM",31.51%
same,Apoptosis (%),"[1]; Patient 8, 0.5 μM",12.9%
same,Apoptosis (%),"[1]; Patient 8, 1.0 μM",31.58%
same,Apoptosis (%),"[1]; Patient 9, 0.2 μM",24.8%
same,Apoptosis (%),"[1]; Patient 9, 1.0 μM",43.7%
same,Apoptosis (%),"[1]; Patient 10, 0.2 μM",27.9%
same,Apoptosis (%),"[1]; Patient 10, 1.0 μM",52%
same,Apoptosis (%),"[1]; Patient 11, 0.2 μM",53.1%
same,Apoptosis (%),"[1]; Patient 11, 1.0 μM",71.8%
same,apoptosis compared with DMSO control,[1]; WM patient primary LPCs,induced significant apoptosis

# Reference: US10633348B2, “Methods to treat lymphoplasmacytic lymphoma” (Dana-Farber Cancer Institute, Inc., priority 2013, dated 2020)
